Assay results published in article PMC9687990, “Identification, Characterization, and Expression of a β-Galactosidase from Arion Species (Mollusca)” (Biomolecules, 2022).

How the values were obtained:
[1] = test system: T1, native β-galactosidase from A. lusitanicus; test: colorimetric p-nitrophenol release, […] nm; assay type: biochemical, Arion vulgaris; conditions: pH 4.5 (Na citrate), 37 °C, 2 h; 0.2-12.5 mM substrate
T1 construct: gene β-Gal

[2] = target: T2, recombinant β-galactosidase from A. vulgaris (β-gal) (Arion vulgaris, UniProt A0A0B7AQJ9); test: inhibition of pNP-β-Gal hydrolysis, colorimetric […] nm; assay type: biochemical; conditions: pNP-β-Gal substrate, pH 4.5, 37 °C, 2 h; 12 mM galactose; product inhibition
T2 construct: gene ORF136304
T2 sequence (A0A0B7AQJ9 1-661): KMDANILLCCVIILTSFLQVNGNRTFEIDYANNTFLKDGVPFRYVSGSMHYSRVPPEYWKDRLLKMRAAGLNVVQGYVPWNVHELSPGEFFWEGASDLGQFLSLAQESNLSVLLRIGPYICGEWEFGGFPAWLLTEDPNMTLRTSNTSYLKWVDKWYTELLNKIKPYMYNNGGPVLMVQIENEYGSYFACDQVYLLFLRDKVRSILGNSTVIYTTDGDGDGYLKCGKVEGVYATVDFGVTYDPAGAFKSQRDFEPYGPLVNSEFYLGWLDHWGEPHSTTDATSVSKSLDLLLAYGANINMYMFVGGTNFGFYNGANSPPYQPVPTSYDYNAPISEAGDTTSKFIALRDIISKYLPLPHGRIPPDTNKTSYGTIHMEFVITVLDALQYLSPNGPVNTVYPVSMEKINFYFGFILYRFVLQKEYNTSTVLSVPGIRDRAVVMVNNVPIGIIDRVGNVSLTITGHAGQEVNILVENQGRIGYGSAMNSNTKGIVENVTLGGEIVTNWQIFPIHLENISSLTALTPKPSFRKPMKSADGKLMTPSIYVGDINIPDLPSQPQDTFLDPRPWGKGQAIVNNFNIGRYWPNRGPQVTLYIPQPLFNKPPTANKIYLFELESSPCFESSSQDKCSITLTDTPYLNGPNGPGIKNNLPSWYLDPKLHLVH

[3] = substrate: O=[N+]([O-])c1ccc(O[C@@H]2O[C@H](CO)[C@H](O)[C@H](O)[C@H]2O)cc1; test: purified protein; conditions: pH 4.5 (Na citrate), 37 °C, 2 h, 0.2-12.5 mM substrate

O=[N+]([O-])c1ccc(O[C@@H]2O[C@H](CO)[C@H](O)[C@H](O)[C@H]2O)cc1 [pNP-β-Gal]
Km [1]: 8.3 mM

OC[C@H]1OC(O)[C@H](O)[C@@H](O)[C@H]1O (stereo partly drawn) [galactose]
% reduction of activity at 12 mM [2]: ~ 40%

B1: recombinant β-galactosidase from A. vulgaris (β-gal) (Arion vulgaris) (protein)
chain: KMDANILLCCVIILTSFLQVNGNRTFEIDYANNTFLKDGVPFRYVSGSMHYSRVPPEYWKDRLLKMRAAGLNVVQGYVPWNVHELSPGEFFWEGASDLGQFLSLAQESNLSVLLRIGPYICGEWEFGGFPAWLLTEDPNMTLRTSNTSYLKWVDKWYTELLNKIKPYMYNNGGPVLMVQIENEYGSYFACDQVYLLFLRDKVRSILGNSTVIYTTDGDGDGYLKCGKVEGVYATVDFGVTYDPAGAFKSQRDFEPYGPLVNSEFYLGWLDHWGEPHSTTDATSVSKSLDLLLAYGANINMYMFVGGTNFGFYNGANSPPYQPVPTSYDYNAPISEAGDTTSKFIALRDIISKYLPLPHGRIPPDTNKTSYGTIHMEFVITVLDALQYLSPNGPVNTVYPVSMEKINFYFGFILYRFVLQKEYNTSTVLSVPGIRDRAVVMVNNVPIGIIDRVGNVSLTITGHAGQEVNILVENQGRIGYGSAMNSNTKGIVENVTLGGEIVTNWQIFPIHLENISSLTALTPKPSFRKPMKSADGKLMTPSIYVGDINIPDLPSQPQDTFLDPRPWGKGQAIVNNFNIGRYWPNRGPQVTLYIPQPLFNKPPTANKIYLFELESSPCFESSSQDKCSITLTDTPYLNGPNGPGIKNNLPSWYLDPKLHLVH
Km [3]: 3.2 mM
